Measured values taken from US8163700B2, “Inhibitors of myelin-associated glycoprotein (MAG) activity for regulating neural growth and regeneration” (Research Foundation of City University of New York, priority 2002, dated 2012).
Residue numbers refer to the chain shown, from its start. Names and notes keep the numbering of the source. “Also recorded” adds a separate entry of the source.

B1: MAG(L431D)-Fc: murine MAG-Fc with point mutation L431D, Ig domain 5 (protein, listed as Mus sp.)
chain: MIFLATLPLFWIMISASRGGHWGAWMPSTISAFEGTCVSIPCRFDFPDELRPAVVHGVWYFNSPYPKNYPPVVFKSRTQVVHESFQGRSRLLGDLGLRNCTLLLSTLSPELGGKYYFRGDLGGYNQYTFSEHSVLDIVNTPNIVVPPEVVAGTEVEVSCMVPDNCPELRPELSWLGHEGLGEPTVLGRLREDEGTWVQVSLLHFVPTREANGHRLGCQAAFPNTTLQFEGYASLDVKYPPVIVEMNSSVEAIEGSHVSLLCGADSNPPPLLTWMRDGMVLREAVAKSLYLDLEEVTPGEDGVYACLAENAYGQDNRTVELSVMYAPWKPTVNGTVVAVEGETVSILCSTQSNPDPILTIFKEKQILATVIYESQLQLELPAVTPEDDGEYWCVAENQYGQRATAFNLSVEFAPIILLESHCAAARDTVQCDCVVKSNPEPSVAFELPSRNVTVNETEREFVYSERSGLLLTSILTIRGQAQAPPRVICTSRNLYGTQSLELPFQGAHRLMWAKIGPVGAVVAFAILIAIVCYITQTRRKKNVTESSSFSGGDNPHVLYSPEFRISGAPDKYESREVSTRDCH
modifications: Fc fusion
B2: MAG(K435E)-Fc: murine MAG-Fc with point mutation K435E, Ig domain 5 (protein, listed as Mus sp.)
chain: B1 chain with D431L, K435E
modifications: Fc fusion
B3: MAG(E445K)-Fc: murine MAG-Fc with point mutation E445K, Ig domain 5 (protein, listed as Mus sp.)
chain: B1 chain with D431L, E445K
modifications: Fc fusion
B4: MAG(R485D)-Fc: murine MAG-Fc with point mutation R485D, Ig domain 5 (protein, listed as Mus sp.)
chain: B1 chain with D431L, R485D
modifications: Fc fusion
B5: MAG(R491E)-Fc: murine MAG-Fc with point mutation R491E, Ig domain 5/TM (protein, UniProt P20917 20-516, looked up, variant R491E)
extracellular domain: GHWGAWMPSTISAFEGTCVSIPCRFDFPDELRPAVVHGVWYFNSPYPKNYPPVVFKSRTQVVHESFQGRSRLLGDLGLRNCTLLLSTLSPELGGKYYFRGDLGGYNQYTFSEHSVLDIVNTPNIVVPPEVVAGTEVEVSCMVPDNCPELRPELSWLGHEGLGEPTVLGRLREDEGTWVQVSLLHFVPTREANGHRLGCQAAFPNTTLQFEGYASLDVKYPPVIVEMNSSVEAIEGSHVSLLCGADSNPPPLLTWMRDGMVLREAVAKSLYLDLEEVTPGEDGVYACLAENAYGQDNRTVELSVMYAPWKPTVNGTVVAVEGETVSILCSTQSNPDPILTIFKEKQILATVIYESQLQLELPAVTPEDDGEYWCVAENQYGQRATAFNLSVEFAPIILLESHCAAARDTVQCLCVVKSNPEPSVAFELPSRNVTVNETEREFVYSERSGLLLTSILTIRGQAQAPPRVICTSENLYGTQSLELPFQGAHRLMWAKIGP
modifications: extracellular domain Fc fusion
notes: murine MAG-Fc with point mutation R491E, Ig domain 5/TM

Legend:
[1] = test system: cerebellar neurons on CHO cells expressing MAG; experiment: Neurite outgrowth on MAG-expressing CHO cells in the presence of MAG peptides (FIGS. 4 and 5); type: cell-based; conditions: for effect on the ability of MAG-expressing cells to inhibit neurite outgrowth / neurite length relative to neurites extended without peptide or with MAG Igd4 peptides: peptide 15 μM, overnight, FIG. 4; for neurite length relative to neurites extended without peptide or with MAG Igd4 peptides: neurons on MAG-expressing cells; for attenuation of inhibition of neurite outgrowth by MAG: peptide 20 μM, 18 hours, FIG. 5
Protocol: FIG. 4 Inhibition of neurite outgrowth from cerebellar neurons by MAG; peptides Cerebellar neurons were isolated (Example 1) and grown overnight on a monolayer of control-transfected CHO cells (not shown) or CHO cells expressing MAG in the absence (striped bar) or the presence (grey bars) of MAG peptides (15 μM) derived from MAG Ig-like domain 4 or 5. Neurons were stained for GAP-43 antigen and neurite length was measured. Results are shown as number of neurons in each treatment having neurites longer than two times the length of the cell body.
FIG. 5 Inhibition of neurite outgrowth from cerebellar neurons by MAG peptides Cerebellar neurons were isolated (Example 1) and grown for 18 hrs on a monolayer of control-transfected CHO cells (R2) or CHO cells expressing MAG in the absence of a peptide (MAG) or in the presence of a peptide derived from sialoadhesin Ig-like domain 5 (non-MAG “control peptide”) or a MAG peptide (M433 or M462 at 20 μM) derived from MAG Ig-like domain 5. Neurons were stained for GAP-43 antigen and neurite length was measured and the average length was calculated for 180-200 neurons (+/−SEM).
Confluent monolayers of control, MAG-, truncated MAG- or chimeric MAG-Sn-expressing CHO cells were established over a 24-hour (h) period in individual chambers of an 8-well tissue culture slide (Lab-Tek). Co-cultures were established as described previously (Doherty et al., Nature, 343, pp. 464-66 (1990); Neuron, 5, pp. 209-19 (1990); Mukhopadhyay et al., Neuron, 13, pp. 757-67 (1994)) by adding approximately 5000 cerebellar neurons to the CHO monolayers. Culture medium was SATO containing 2% FCS. After periods of time as indicated, the co-cultures were fixed for 30 minutes (min) with 4% paraformaldehyde and permeabilized with ice-cold methanol for 2 min. The cells were then blocked for 30 min with DMEM containing 10% FCS and incubated for 2 h with a rabbit polyclonal antibody against the neuronal marker GAP43 (1:4000). Cells were washed three times with PBS-BSA (2%) and then incubated for 30 min at room temperature with a biotinylated donkey anti-rabbit Ig (1:300, Amersham), washed three times, and incubated with streptavidin-conjugated Texas Red (1:300, Amersham) for 30 min. After three more washes, the slides were mounted in Permfluor (Baxter) and viewed with a Zeiss fluorescent microscope. The length of the longest neurite for each GAP43-positive neuron was determined using the Biological Detection System image analysis program (Pittsburgh).
Peptides corresponding to amino acid residues […] of MAG (MAG(343-371)), amino acid residues 363-397 (MAG(363-397)), amino acid residues 394-428 (MAG(394-428)), amino acid residues 422-451 (MAG(422-451)), amino acid residues 442-471 (MAG(442-471)), and amino acid residues 461-498 (MAG(461-498)) were synthesized. Peptides were obtained from SynPep Corp. (Dublin, Calif.). MAG(343-371), MAG(363-397) and MAG(394-428) correspond to amino acid residues from the Ig4 domain of MAG. MAG(422-451), MAG(442-471) and MAG(461-498) corresponds to amino acid residues from the Ig5 domain of MAG. […] Results are shown in FIG. 4 (and are represented as number of neurons with processes longer than 2-times the cell diameter). […] Results are shown in FIG. 5 (and are represented as average neurite length for 180-200 neurons).

cerebellar neurons = experiment: Neurite outgrowth on L1-Fc substrate in the presence of soluble MAG-Fc chimeras (FIG. 3); type: cell-based; conditions: soluble protein 25 μg/ml, 18 hours, compared to control chimera
Protocol: FIG. 3 Inhibition of neurite outgrowth from cerebellar neurons by MAG-Fc Derivatives Cerebellar neurons were isolated (Example 1) and plated onto a growth promoting substrate of L1 protein (Example 4). A control MUC-Fc fusion (clear bar), wild-type MAG-Fc (striped bar) and MAG-Fc derivatives having point mutations in MAG Ig-like domains 4 or 5 (grey bars) were constructed (Example 4) and added in soluble form to neurons (25 μg/ml). After 18 hours, cultures were fixed and stained for GAP-43 antigen. Neurite length was measured and the average length was calculated for 180-200 neurons (+/−SEM).
Individual wells of an eight-chamber tissue culture plastic slide (Lab-Tek, Nuc. Inc.) were incubated with 0.3 nil of 16.6 μg/ml poly-1-lysine in sterile water for at least one hour under sterile conditions. Each well was washed twice with 400 μl of a 0.1M sodium bicarbonate solution, pH 9.6, and then received 0.3 ml of 0.1M sodium bicarbonate solution, pH 9.6, containing 15 μg/ml goat anti-human IgG (Fc-specific) monoclonal antibody (Sigma). The wells were incubated for 2 hours (h) at 37° C., and washed three times with 0.4 ml of ice-cold DMEM. Each well then received 0.3 nil of DMEM containing 40 μg/ml of L1-Fc and was incubated for 2-4 h at 37° C. The welts were washed twice DMEM.
Cerebellar neurons (post-natal days 2-7) were dissociated by trypsinization as described in Example 1, except that the dissociated neurons were resuspended in 5 ml of SATO medium containing 2% dialyzed FBS. To an individual well coated with a monolayer of L1-Fc as described above, 5.0×10^4 cerebellar neurons were added, followed by addition of one of the mutant MAG-Fc or MUC18-Fc chimeric soluble protein described above at a concentration of 25 μg/ml. Neurons were cultured for 18 hours at 37° C., and then fixed and stained for GAP43 essentially as described in Example 2. Neurite length was measured for 180-200 neurons.

Molecule	effect on the ability of MAG-expressing cells to inhibit neurite outgrowth [1]	inhibition of neurite outgrowth (in words) (cerebellar neurons)	further results
MAG(442-471): peptide of MAG amino acid residues 442-471 (SEQ ID NO: 16) (VAFELPSRNVTVNETEREFVYSERSGLLLT)	strongly attenuated inhibition by MAG		neurite length relative to neurites extended without peptide or with MAG Igd4 peptides [1]: at least twice as long
M462: peptide of MAG amino acid residues 462-486 (SEQ ID NO: 24) (YSERSGLLLTSILTLRGQAQAPPRV)			attenuation of inhibition of neurite outgrowth by MAG [1]: even more strongly attenuated inhibition by MAG
MAG(461-498): 38 amino acid peptide of MAG residues 461-498 (SEQ ID NO: 23) (VYSERSGLLLTSILTLRGQAQAPPRVICTSRNLYGTQS)	no apparent effect on inhibition of neurite outgrowth by MAG; also recorded: does not reduce the ability of wild-type MAG to inhibit neurite outgrowth		
MAG(422-451): peptide of MAG amino acid residues 422-451 (SEQ ID NO: 15) (AAARDTVQCLCVVKSNPEPSVAFELPSRNV)	strongly attenuated inhibition by MAG		neurite length relative to neurites extended without peptide or with MAG Igd4 peptides [1]: at least twice as long
M433: peptide of MAG amino acid residues 433-457 (SEQ ID NO: 20) (VVKSNPEPSVAFELPSRNVTVNETE)			attenuation of inhibition of neurite outgrowth by MAG [1]: even more strongly attenuated inhibition by MAG
B1		none	
B2		none	
B3		none	
B4		none	
B5		none	
